Measurements as given in US20230040770A1, “HETEROCYCLIC COMPOUND AND USE THEREOF” (TAKEDA PHARMACEUTICAL COMPANY LIMITED, priority 2019, published 2023).

These compounds were tested against T1, human orexin type 2 receptor (Homo sapiens, UniProt O43614) (assay: Measurement of orexin type 2 receptor agonist activity (calcium indicator fluorescence, CHO cells forcibly expressing human OX2 receptor)). Settings: compound at 3 μM; 0% = DMSO, 100% = orexin A (human) 10 nM.
T1 construct: expressed in transfected cells
T1 sequence (O43614 1-444): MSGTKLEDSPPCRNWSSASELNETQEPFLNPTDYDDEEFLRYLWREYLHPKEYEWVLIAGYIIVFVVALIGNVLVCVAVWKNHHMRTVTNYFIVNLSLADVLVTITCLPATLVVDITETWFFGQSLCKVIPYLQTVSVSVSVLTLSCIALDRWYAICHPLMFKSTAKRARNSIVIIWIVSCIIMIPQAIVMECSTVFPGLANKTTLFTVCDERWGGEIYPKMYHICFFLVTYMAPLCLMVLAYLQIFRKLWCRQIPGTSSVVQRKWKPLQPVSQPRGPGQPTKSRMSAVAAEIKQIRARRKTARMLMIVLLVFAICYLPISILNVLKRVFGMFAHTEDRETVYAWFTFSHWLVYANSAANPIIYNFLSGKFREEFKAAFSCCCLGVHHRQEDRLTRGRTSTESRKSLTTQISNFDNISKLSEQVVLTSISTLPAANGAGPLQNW
Type: cell-based
Method in brief: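 CHO-dhfr cells stably expressing human OX2R, loaded with Fluo-4 AM (30 min 37 °C, then 30 min RT), then given test compound. Calcium fluorescence read by FDSS over ~2 min. Activity (%) scaled from DMSO (0%) to 10 nM final orexin A (100%).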

| OX2R agonist activity (3 μM, %) [%] | Structure (SMILES) |
| --- | --- |
| 103 | CCS(=O)(=O)N[C@H]1[C@@H](F)CN(C(=O)C2CCO2)[C@H]1Cc1cccc(-c2cc(F)cc(F)c2)c1F (stereo partly drawn) [Example 305, N-{(2S,3R,4S)-4-fluoro-1-(oxetane-2-carbonyl)-2-[(2,3′,5′-trifluoro[1,1′-biphenyl]-3-yl)methyl]pyrrolidin-3-yl}ethanesulfonamide] |
| 101 | Cc1cccc(-c2cccc(C[C@H]3[C@@H](NS(=O)(=O)N(C)C)C(F)(F)CN3C(=O)[C@H]3CCO3)c2F)c1F [Example 539, N′-{(2S,3R)-2-[(2,2′-difluoro-3′-methyl[1,1′-biphenyl]-3-yl)methyl]-4,4-difluoro-1-[(2R)-oxetane-2-carbonyl]pyrrolidin-3-yl}-N,N-dimethylsulfuric diamide] |
| 102 | CCS(=O)(=O)N[C@H]1[C@@H](F)CN(C(=O)C2CC2)[C@H]1Cc1cccc(-c2cccc(Cl)c2)c1F [Example 516, N-[(2S,3R,4S)-2-[(3′-chloro-2-fluoro[1,1′-biphenyl]-3-yl)methyl]-1-(cyclopropanecarbonyl)-4-fluoropyrrolidin-3-yl]ethanesulfonamide] |
| 98 | CCS(=O)(=O)N[C@H]1[C@@H](F)CN(C(=O)C2CC2)[C@H]1Cc1cccc(-c2ccccc2F)c1F [Example 518, N-{(2S,3R,4S)-1-(cyclopropanecarbonyl)-2-[(2,2′-difluoro[1,1′-biphenyl]-3-yl)methyl]-4-fluoropyrrolidin-3-yl}ethanesulfonamide] |
| 95 | CCS(=O)(=O)N[C@@H]1[C@H](Cc2cccc(-c3ccc(F)c(C)c3)c2F)N(C(=O)C2CCO2)CC1(F)F (stereo partly drawn) [Example 472, N-[(2S,3R)-2-[(2,4′-difluoro-3′-methyl[1,1′-biphenyl]-3-yl)methyl]-4,4-difluoro-1-(oxetane-2-carbonyl)pyrrolidin-3-yl]ethanesulfonamide] |
| 97 | CCS(=O)(=O)N[C@@H]1[C@H](Cc2cccc(-c3cccc(OC)c3)c2F)N(C(=O)C2(O)CCC2)CC1(F)F [Example 513, N-[(2S,3R)-4,4-difluoro-2-[(2-fluoro-3′-methoxy[1,1′-biphenyl]-3-yl)methyl]-1-(1-hydroxycyclobutane-1-carbonyl)pyrrolidin-3-yl]ethanesulfonamide] |
| 98 | CC(C)C(=O)N1CC(F)(F)[C@H](NS(=O)(=O)C2CC2)[C@@H]1Cc1cccc(-c2cc(F)cc(F)c2)c1F [Example 166] |
| 88 | CCS(=O)(=O)N[C@@H]1[C@H](Cc2cccc(-c3cc(F)cc(F)c3)c2F)N(C(=O)C2(O)CCC2)CC1(F)F [Example 272, N-{(2S,3R)-4,4-difluoro-1-(1-hydroxycyclobutane-1-carbonyl)-2-[(2,3′,5′-trifluoro[1,1′-biphenyl]-3-yl)methyl]pyrrolidin-3-yl}ethanesulfonamide] |
| 85 | CCS(=O)(=O)N[C@@H]1[C@H](Cc2cccc(-c3cccc(F)c3F)c2F)N(C(=O)[C@H]2CCCO2)CC1(F)F [Example 455, N-{(2S,3R)-4,4-difluoro-1-[(2R)-oxolane-2-carbonyl]-2-[(2,2′,3′-trifluoro[1,1′-biphenyl]-3-yl)methyl]pyrrolidin-3-yl}ethanesulfonamide] |
| 98 | CC(C)(O)C(=O)N1CC(F)(F)[C@H](NS(C)(=O)=O)[C@@H]1Cc1cccc(-c2cccc(Cl)c2)c1F [Example 44, N-[(2S,3R)-2-[(3′-chloro-2-fluoro[1,1′-biphenyl]-3-yl)methyl]-4,4-difluoro-1-(2-hydroxy-2-methylpropanoyl)pyrrolidin-3-yl]methanesulfonamide] |
| 92 | CCS(=O)(=O)N[C@H]1[C@@H](F)CN(C(=O)N(C)C)[C@H]1Cc1cccc(-c2ccc(F)c(C)c2)c1F [Example 409, (2S,3R,4S)-2-[(2,4′-difluoro-3′-methyl[1,1′-biphenyl]-3-yl)methyl]-3-[(ethanesulfonyl)amino]-4-fluoro-N,N-dimethylpyrrolidine-1-carboxamide] |
| 92 | CS(=O)(=O)N[C@H]1[C@@H](F)CN(C(=O)C2CCO2)[C@H]1Cc1cccc(-c2cccc(F)c2)c1F (stereo partly drawn) [Example 323, N-[(2S,3R,4S)-2-[(2,3′-difluoro[1,1′-biphenyl]-3-yl)methyl]-4-fluoro-1-(oxetane-2-carbonyl)pyrrolidin-3-yl]methanesulfonamide] |
| 102 | CN(C)C(=O)N1C[C@H](F)[C@H](NS(=O)(=O)N(C)C)[C@@H]1Cc1cccc(-c2cccc(F)c2)c1F [Example 344, (2S,3R,4S)-2-[(2,3′-difluoro[1,1′-biphenyl]-3-yl)methyl]-3-[(dimethylsulfamoyl)amino]-4-fluoro-N,N-dimethylpyrrolidine-1-carboxamide] |
| 99 | CS(=O)(=O)N[C@@H]1[C@H](Cc2cccc(-c3cc(F)cc(F)c3)c2F)N(C(=O)[C@@H]2CCO2)CC1(F)F [Example 92, N-{(2S,3R)-4,4-difluoro-1-((2S)-oxetane-2-carbonyl)-2-[(2,3′,5′-trifluoro[1,1′-biphenyl]-3-yl)methyl]pyrrolidin-3-yl}methanesulfonamide] |
| 98 | CCS(=O)(=O)N[C@H]1[C@@H](F)CN(C(=O)N(C)C)[C@H]1Cc1cccc(-c2cccc(F)c2F)c1F [Example 330, (2S,3R,4S)-3-[(ethanesulfonyl)amino]-4-fluoro-N,N-dimethyl-2-[(2,2′,3′-trifluoro[1,1′-biphenyl]-3-yl)methyl]pyrrolidine-1-carboxmaide] |
| 94 | Cc1cccc(-c2cccc(C[C@H]3[C@@H](NS(=O)(=O)C4CC4)C(F)(F)CN3C(=O)[C@H]3CCO3)c2F)c1F [Example 530, N-{(2S,3R)-2-[(2,2′-difluoro-3′-methyl[1,1′-biphenyl]-3-yl)methyl]-4,4-difluoro-1-[(2R)-oxetane-2-carbonyl]pyrrolidin-3-yl}cyclopropanesulfonamide] |
| 99 | CCS(=O)(=O)N[C@@H]1[C@H](Cc2cccc(-c3ccccc3)c2F)N(C(=O)N2CCC2)CC1(F)F [Example 228, N-{(2S,3R)-1-(azetidine-1-carbonyl)-4,4-difluoro-2-[(2-fluoro[1,1′-biphenyl]-3-yl)methyl]pyrrolidin-3-yl}ethanesulfonamide] |
| 101 | CC(C)(O)C(=O)N1CC(F)(F)[C@H](NS(C)(=O)=O)[C@@H]1Cc1cccc(-c2ccccc2)c1F [Example 4, N-[(2S,3R)-4,4-difluoro-2-[(2-fluoro[1,1′-biphenyl]-3-yl)methyl]-1-(2-hydroxy-2-methylpropanoyl)pyrrolidin-3-yl]methanesulfonamide] |
| 100 | Cc1cccc(-c2cccc(C[C@H]3[C@@H](NS(=O)(=O)C4CC4)[C@@H](F)CN3C(=O)C3(O)CCC3)c2F)c1 [Example 537, N-[(2S,3R,4S)-4-fluoro-2-[(2-fluoro-3′-methyl[1,1′-biphenyl]-3-yl)methyl]-1-(1-hydroxycyclobutane-1-carbonyl)pyrrolidin-3-yl]cyclopropanesulfonamide] |
| 100 | CN(C)S(=O)(=O)N[C@@H]1[C@H](Cc2cccc(-c3cccc(F)c3)c2F)N(C(=O)[C@H]2CCO2)CC1(F)F [Example 541, N′-{(2S,3R)-2-[(2,3′-difluoro[1,1′-biphenyl]-3-yl)methyl]-4,4-difluoro-1-[(2R)-oxetane-2-carbonyl]pyrrolidin-3-yl}-N,N-dimethylsulfuric diamide] |
| 96 | CN(C)C(=O)N1CC(F)(F)[C@H](NS(=O)(=O)N(C)C)[C@@H]1Cc1cccc(-c2cc(F)cc(F)c2)c1F [Example 532, (2S,3R)-3-[(dimethylsulfamoyl)amino]-4,4-difluoro-N,N-dimethyl-2-[(2,3′,5′-trifluoro[1,1′-biphenyl]-3-yl)methyl]pyrrolidine-1-carboxamide] |
| 85 | CN(C)C(=O)N1C[C@H](F)[C@H](NS(=O)(=O)C2CC2)[C@@H]1Cc1cccc(-c2cccc(F)c2)c1F [Example 387, (2S,3R,4S)-3-[(cyclopropanesulfonyl)amino]-2-[(2,3′-difluoro[1,1′-biphenyl]-3-yl)methyl]-4-fluoro-N,N-dimethylpyrrolidine-1-carboxamide] |
| 96 | CC(C)C(=O)N1CC(F)(F)[C@H](NS(C)(=O)=O)[C@@H]1Cc1cccc(-c2cc(F)cc(F)c2)c1 [Example 35, N-[(2S,3R)-2-[(3′,5′-difluoro[1,1′-biphenyl]-3-yl)methyl]-4,4-difluoro-1-(2-methylpropanoyl)pyrrolidin-3-yl]methanesulfonamide] |
| 90 | CCS(=O)(=O)N[C@@H]1[C@H](Cc2cccc(-c3cccc(F)c3)c2)N(C(=O)C(C)C)CC1(F)F [Example 97, N-[(2S,3R)-4,4-difluoro-2-[(3′-fluoro[1,1′-biphenyl]-3-yl)methyl]-1-(2-methylpropanoyl)pyrrolidin-3-yl]ethanesulfonamide] |
| 103 | CCS(=O)(=O)N[C@H]1[C@@H](F)CN(C(=O)C(C)(C)O)[C@H]1Cc1cccc(-c2cc(Cl)ccc2F)c1F [Example 348, N-[(2S,3R,4S)-2-[(5′-chloro-2,2′-difluoro[1,1′-biphenyl]-3-yl)methyl]-4-fluoro-1-(2-hydroxy-2-methylpropanoyl)pyrrolidin-3-yl]ethanesulfonamide] |
